Test results published in patent publication US20070259784A1, “Fungicidal Mixtures” (BASF Aktiengesellschaft, priority 2004, published 2007).

System: Puccinia recondita
Assay: Protective activity against Puccinia recondita on wheat (brown rust of wheat)
Format: in vivo
Conditions: individual active compound, wheat leaves, visual rating
Procedure: The active compounds, separately or jointly, were prepared as a stock solution comprising 0.25% by weight of active compound in acetone or DMSO. 1% by weight of the emulsifier Uniperol® EL (welting agent having emulsifying and dispersant action based on ethoxylated alkylphenols) was added to this solution, and the mixture was diluted with water to the desired concentration.
Leaves of potted wheat seedlings of the cultivar “Kanzler” were sprayed to runoff point with an aqueous suspension having the concentration of active compound stated below. The next day, the treated plants were inoculated with a spore suspension of brown rust of wheat (Puccinia recondita). The plants were then placed in a chamber with high atmospheric humidity (90 to 95%) at 20 to 22° C. for 24 hours. During this time, the spores germinated and the germinal tubes penetrated into the leaf tissue. The next day, the test plants were returned to the greenhouse and cultivated at temperatures between 20 and 22° C. and at 65 to 70% relative atmospheric humidity for a further 7 days. The extent of the development of the rust fungus on the leaves was then determined visually.
The visually determined percentages of infected leaf areas were converted into efficacies in % of the untreated control:
The efficacy (E) is calculated as follows using Abbot's formula: E=(1−α/β)·100 α corresponds to the fungicidal infection of the treated plants in % and β corresponds to the fungicidal infection of the untreated (control) plants in %
An efficacy of 0 means that the infection level of the treated plants corresponds to that of the untreated control plants; an efficacy of 100 means that the treated plants were not infected.
The expected efficacies of mixtures of active compounds were determined using Colby's formula (Colby, S. R. “Calculating synergistic and antagonistic responses of herbicide combinations”, Weeds, 15, 20-22, 1967) and compared with the observed efficacies.
Colby's Formula: E=x+y−x·y/100 • E expected efficacy, expressed in % of the untreated control, when using the mixture of the active compounds A and B at the concentrations a and b • x efficacy, expressed in % of the untreated control, when using the active compound A at the concentration a
y efficacy, expressed in % of the untreated control, when using the active compound B at the concentration b

SMILES | Efficacy in % of the untreated control (2.5 ppm in the spray liquor) [%] | Efficacy in % of the untreated control (5 ppm in the spray liquor) [%] | Efficacy in % of the untreated control (1 ppm in the spray liquor) [%] | Efficacy in % of the untreated control (12.5 ppm in the spray liquor) [%]
CC1CCN(c2c(-c3c(F)cc(F)cc3F)c(Cl)nc3ncnn23)CC1 [compound I, 5-chloro-7-(4-methylpiperidin-1-yl)-6-(2,4,6-trifluorophenyl)-[1,2,4]triazolo[1,5-a]pyrimidine] | 42 | 53 | – | –
CCN(CC)C1COC2(CCC(C(C)(C)C)CC2)O1 (centres unmarked) [compound II, (8-tert-butyl-1,4-dioxaspiro[4.5]dec-2-yl)diethylamine] | 0 | – | 0 | 0
